Test results reported in PubChem BioAssay AID1117350 (Cheminformatics & Chemogenomics Research Group (CCRG), …, 2015).
“And” between values parts separate entries of the source, which are not always exact repeats. Equal entries are not always repeated. The source made the active and inactive calls. The rule behind the calls is not given here.

Each molecule was assayed on HeLa, chromatin condensation phenotype imaging (assay: condensed chromatin phenotype in HeLa cells – imaging, IC50, dose response (AID 1117350)).
In the case of `CCCCCCCCCCCC(=O)[O][Sn]([CH2]CCC)([CH2]CCC)[O]C(=O)CCCCCCCCCCC`, the IC50 is reported as > 10 µM (inactive).
For `CC(C)C[C@H](NC(=O)[C@H](CCc1ccccc1)NC(=O)CN1CCOCC1)C(=O)N[C@@H](Cc1ccccc1)C(=O)N[C@@H](CC(C)C)C(=O)[C@@]1(C)CO1`, the IC50 was > 10 µM (inactive).
For `Clc1ccccc1C(c1ccccc1)(c1ccccc1)n1ccnc1`, the IC50 was > 10 µM (inactive).
In the case of `CCCCC1C(=O)N(c2ccccc2)N(c2ccc(O)cc2)C1=O` (configuration not stated), the IC50 is reported as > 10 µM (inactive).
`O=c1[nH]c(=O)n([C@H]2C[C@H](O)[C@@H](CO)O2)cc1I` was tested, and the IC50 was > 10 µM (inactive).
`Clc1ccc(Nc2nnc(Cc3ccncc3)c3ccccc23)cc1` was tested, and the IC50 was > 10 µM (inactive).
For `CC[C@]1(O)C[C@@H]2CN(CCc3c([nH]c4ccccc34)[C@@](C(=O)OC)(c3cc4c(cc3OC)N(C)[C@H]3[C@@](O)(C(=O)OC)[C@H](OC(C)=O)[C@]5(CC)C=CCN6CC[C@]43[C@@H]65)C2)C1`, the IC50 was 0.00452 µM and 0.0032 µM.
In the case of `CCCCCCNC(=O)n1cc(F)c(=O)[nH]c1=O`, the IC50 is reported as > 10 µM (inactive).
`COc1cc(-c2ccc(=O)[nH]n2)ccc1OC(F)F` was tested, and the IC50 was > 10 µM (inactive).
For `CC(C)c1c(C(=O)Nc2ccccc2)c(-c2ccccc2)c(-c2ccc(F)cc2)n1CC[C@@H](O)C[C@@H](O)CC(=O)O`, the IC50 was > 10 µM (inactive).
`CC[C@]1(O)C[C@H]2CN(CCc3c([nH]c4ccccc34)[C@@](C(=O)OC)(c3cc4c(cc3OC)N(C=O)[C@H]3[C@@](O)(C(=O)OC)[C@H](OC(C)=O)[C@]5(CC)C=CCN6CC[C@]43[C@@H]65)C2)C1` showed an IC50 of 0.0061 µM.
`CC[C@@]1(O)C(=O)OCc2c1cc1n(c2=O)Cc2c-1nc1ccccc1c2/C=N/OC(C)(C)C` was tested, and the IC50 was > 10 µM (inactive).
In the case of `CN1CCC(Nc2ncc3ncnc(Nc4ccc(F)c(Cl)c4)c3n2)CC1`, the IC50 is reported as > 10 µM (inactive).
For `CC[n+]1c(-c2ccccc2)c2cc(N)ccc2c2ccc(N)cc21`, the IC50 was > 10 µM (inactive).
With `CCC(C)(C)C(=O)O[C@H]1C[C@@H](C)C=C2C=C[C@H](C)[C@H](CC[C@@H]3C[C@@H](O)CC(=O)O3)[C@H]21` the IC50 was > 10 µM (inactive).
With `O=C(c1cc(O)c(O)c(O)c1)c1ccc(O)c(O)c1O` the IC50 was > 10 µM (inactive).
`CCN(CC)CCOc1ccccc1C(=O)CCc1ccccc1` was tested, and the IC50 was > 10 µM (inactive).
For `CCOc1ccc2nc3cc(N)ccc3c(N)c2c1`, the IC50 was > 10 µM (inactive).
`O=C(O)c1ccc(-n2nc(-c3ccccc3O)nc2-c2ccccc2O)cc1` was tested, and the IC50 was > 10 µM (inactive).
With `COCc1c(C(C)C)nc(C(C)C)c(/C=C/[C@@H](O)C[C@@H](O)CC(=O)O)c1-c1ccc(F)cc1` the IC50 was > 10 µM (inactive).
In the case of `COC(=O)Nc1nc2ccc(Sc3ccccc3)cc2[nH]1`, the IC50 is reported as 0.228 µM.
`COc1ccc(Cc2nccc3cc(OC)c(OC)cc23)cc1OC` was tested, and the IC50 was > 10 µM (inactive).
Work on `CCCCCCCCCCCCCCCC[n+]1ccccc1` yielded an IC50 of 0.515 µM.
With `C=C(C)[C@H]1Cc2c(ccc3c2O[C@@H]2COc4cc(OC)c(OC)cc4[C@@H]2C3=O)O1` the IC50 was 0.223 µM.
In the case of `CN(C)c1ccc2nc3ccc(=[N+](C)C)cc-3sc2c1`, the IC50 is reported as > 10 µM (inactive).
`COC(=O)Nc1nc2ccc(C(=O)C3CC3)cc2[nH]1` gave an IC50 of 0.402 µM.
In the case of `N[C@@H](Cc1ccc(N(CCCl)CCCl)cc1)C(=O)O`, the IC50 is reported as > 10 µM (inactive).
In the case of `O=C(Nc1ccc([N+](=O)[O-])cc1Cl)c1cc(Cl)ccc1O`, the IC50 is reported as > 10 µM (inactive).
In the case of `C=CC(=O)Nc1cc2c(Nc3ccc(F)c(Cl)c3)ncnc2cc1OCCCN1CCOCC1`, the IC50 is reported as 4.29 µM.
For `Cc1ccc(S(=O)(=O)NC(=O)NN2CC3CCCC3C2)cc1` (configuration not stated), the IC50 was > 10 µM (inactive).
`NCCCC[C@H](N[C@@H](CCc1ccccc1)C(=O)O)C(=O)N1CCC[C@H]1C(=O)O` was tested, and the IC50 was > 10 µM (inactive).
`CC(=O)N(O)CCCCCNC(=O)CCC(=O)N(O)CCCCCNC(=O)CCC(=O)N(O)CCCCCN` was tested, and the IC50 was > 10 µM (inactive).
For `C[C@]12CC[C@@H]3c4ccc(O)cc4CC[C@H]3[C@@H]1CC[C@@H]2OC(=O)CCC1CCCC1`, the IC50 was > 10 µM (inactive).
`CC(C)n1c(/C=C/[C@@H](O)C[C@@H](O)CC(=O)O)c(-c2ccc(F)cc2)c2ccccc21` was tested, and the IC50 was > 10 µM (inactive).
`CCCOc1ccc2nc(NC(=O)OC)[nH]c2c1` was tested, and the IC50 was 0.0775 µM.
In the case of `CSc1ccc2c(c1)C(N1CCN(C)CC1)Cc1ccccc1S2` (configuration not stated), the IC50 is reported as > 10 µM (inactive).
`CCCCOC(=O)c1ccc(N)cc1` was tested, and the IC50 was > 10 µM (inactive).
`Cc1c(C)c2c(c(C)c1O)CCC(C)(COc1ccc(CC3SC(=O)NC3=O)cc1)O2` (configuration not stated) was tested, and the IC50 was > 10 µM (inactive).
With `Oc1ccc([C@H]2CNCc3c2ccc(O)c3O)cc1O` the IC50 was > 10 µM (inactive).
For `O=c1[nH]cc(F)c(=O)[nH]1`, the IC50 was > 10 µM (inactive).
With `CCCN(CCC)C(=O)C(CCC(=O)OCCCN1CCN(CCOC(=O)Cc2c(C)n(C(=O)c3ccc(Cl)cc3)c3ccc(OC)cc23)CC1)NC(=O)c1ccccc1` (configuration not stated) the IC50 was > 10 µM (inactive).
For `O=C(O)CN(CCN(CC(=O)O)CC(=O)O)CCN(CC(=O)O)CC(=O)O`, the IC50 was > 10 µM (inactive).
For `Nc1nc(F)nc2c1ncn2[C@@H]1O[C@H](CO)[C@@H](O)[C@@H]1O`, the IC50 was > 10 µM (inactive).
For `O=C1C(=O)c2ccccc2C(O)=C1C1CCC(c2ccc(Cl)cc2)CC1` (configuration not stated), the IC50 was > 10 µM (inactive).
In the case of `CCCCC(CC)CN=C(N)NC(N)=NCCCCCCN=C(N)NC(N)=NCC(CC)CCCC` (configuration not stated), the IC50 is reported as > 10 µM (inactive).
In the case of `CN(C)/N=N/c1nc[nH]c1C(N)=O`, the IC50 is reported as > 10 µM (inactive).
For `O=c1[nH]c(=O)n([C@H]2C[C@H](O)[C@@H](CO)O2)cc1Br`, the IC50 was > 10 µM (inactive).
In the case of `Cc1cc(=O)c2c(O)c3c(O)cc(=O)c4c3c3c(cc(O)c1c23)C(C)(C)C=4O`, the IC50 is reported as > 10 µM (inactive).
In the case of `Cc1ccc(CCn2c3c(c4cc(Cl)ccc42)CN(C)CC3)cn1`, the IC50 is reported as > 10 µM (inactive).
With `[O-][n+]1ccccc1SSc1cccc[n+]1[O-]` the IC50 was 2.23 µM.
`CC[C@@]1(O)C(=O)OCc2c1cc1n(c2=O)Cc2cc3c(CN(C)C)c(O)ccc3nc2-1` was tested, and the IC50 was > 10 µM (inactive).
With `Nc1nc(Cl)nc2c1ncn2[C@@H]1O[C@H](CO)[C@@H](O)[C@@H]1F` the IC50 was > 10 µM (inactive).
With `CCCCCCCCCCOCC(O)CN` (configuration not stated) the IC50 was > 10 µM (inactive).
In the case of `COc1ccc(-c2ccc3cc(C(=O)O)ccc3c2)cc1C12CC3CC(CC(C3)C1)C2`, the IC50 is reported as > 10 µM (inactive).
`COC(=O)Nc1nc2ccc(S(=O)c3ccccc3)cc2[nH]1` (configuration not stated) gave an IC50 of 0.241 µM.
For `CCCCCCCCCCCCCCCCNc1ccc(C(=O)O)cc1`, the IC50 was > 10 µM (inactive).
In the case of `CCCSc1ccc2nc(NC(=O)OC)[nH]c2c1`, the IC50 is reported as 0.0615 µM.
With `O=C1c2c(O)cccc2Cc2cccc(O)c21` the IC50 was > 10 µM (inactive).
`CCCCCCCCCCCCNCCNCCNCC(=O)O` was tested, and the IC50 was > 10 µM (inactive).
In the case of `S=c1nc[nH]c2nc[nH]c12`, the IC50 is reported as > 10 µM (inactive).
With `CCN(CC)CCNc1ccc(CO)c2sc3ccccc3c(=O)c12` the IC50 was > 10 µM (inactive).
Work on `COc1cc([C@@H]2c3cc4c(cc3[C@H](O)[C@H]3COC(=O)[C@H]23)OCO4)cc(OC)c1OC` yielded an IC50 of 0.0112 µM.
`O=C(Nc1ccc(Br)cc1)c1cc(Br)cc(Br)c1O` was tested, and the IC50 was > 10 µM (inactive).
With `CC(=O)Nc1ccn(C2COC(COC(=O)c3ccccc3)O2)c(=O)n1` (configuration not stated) the IC50 was > 10 µM (inactive).
In the case of `O=C(NOCC1CC1)c1ccc(F)c(F)c1Nc1ccc(I)cc1Cl`, the IC50 is reported as > 10 µM (inactive).
For `CN(Cc1cnc2nc(N)nc(N)c2n1)c1ccc(C(=O)N[C@@H](CCC(=O)O)C(=O)O)cc1`, the IC50 was > 10 µM (inactive).
With `Oc1c(I)cc(I)c2cccnc12` the IC50 was > 10 µM (inactive).
In the case of `COc1ccc(/C=C/C(=O)c2ccc(OC)cc2OC)cc1`, the IC50 is reported as > 10 µM (inactive).
In the case of `O=C1C2CC=CCC2C(=O)N1SC(Cl)(Cl)Cl` (configuration not stated), the IC50 is reported as 6.14 µM (inactive).
In the case of `Cc1ccc2c(c1)c1c3n2CCNC3CCC1` (configuration not stated), the IC50 is reported as > 10 µM (inactive).
`Nc1ccc2cc3ccc(N)cc3nc2c1` gave an IC50 of 2.47 µM.
For `Cc1nc(N)nc(N)c1-c1ccc(Cl)c(Cl)c1`, the IC50 was > 10 µM (inactive).
In the case of `Nc1nc(=S)c2[nH]cnc2[nH]1`, the IC50 is reported as > 10 µM (inactive).
For `Cc1ccccc1C(OCCN(C)C)c1ccccc1` (configuration not stated), the IC50 was > 10 µM (inactive).
`Cc1nc2ccc(CN(C)c3ccc(C(=O)N[C@@H](CCC(=O)O)C(=O)O)s3)cc2c(=O)[nH]1` was tested, and the IC50 was > 10 µM (inactive).
In the case of `CC(=O)Oc1ccc(C2(c3ccc(OC(C)=O)cc3)Oc3ccccc3NC2=O)cc1`, the IC50 is reported as > 10 µM (inactive).
`NCCNc1ccc(NCCN)c2c1C(=O)c1ccncc1C2=O` was tested, and the IC50 was > 10 µM (inactive).
With `C[C@@]12C(=O)OC(=O)[C@]1(C)C1CCC2O1` the IC50 was 8.5 µM (inactive).
In the case of `COC(=O)Nc1nc2ccc(C(=O)c3cccs3)cc2[nH]1`, the IC50 is reported as 0.0134 µM.
For `CC(C)=CCNc1ncnc2c1ncn2[C@@H]1O[C@H](CO)[C@@H](O)[C@H]1O`, the IC50 was > 10 µM (inactive).
With `C1CN(P2(N3CC3)=NP(N3CC3)(N3CC3)=NP(N3CC3)(N3CC3)=N2)CCO1` (configuration not stated) the IC50 was > 10 µM (inactive).
In the case of `Cc1cc(CC(C)CC(C)(C)C)n(O)c(=O)c1` (configuration not stated), the IC50 is reported as > 10 µM (inactive).
